Measured values reported in patent US11213590B2, “SSTR-targeted conjugates and particles and formulations thereof” (priority 2016, dated 2022).

Assays:
[1] = system: HCC-33 (small cell lung cancer) xenograft; assay: HCC-33 xenograft efficacy; format: in vivo
Experimental: HCC-33 (small cell lung cancer) xenograft was chosen to study efficacy of Conjugate 57. In some groups, Conjugate 57 was given at 1.0 mg/kg, 0.5 mg/kg or 0.33 mg/kg every week for 30 days, a total of four doses for each animal. In some other groups, Conjugate 57 was also given at 0.5 mg/kg or 0.25 mg/kg twice a week for 30 days, a total of 8 total doses for each animal.

[2] = In vivo cardiovascular and respiratory evaluation; design: species or system beagle dog
Experimental: This study was conducted to evaluate the potential cardiovascular and respiratory effects of Conjugate 57 in conscious freely moving naïve male beagle dogs.
Assessments of cardiovascular and respiratory effects and general toxicity were based on mortality, clinical observations, body weight, body temperature, cardiovascular evaluations, i.e., blood pressure (systolic, diastolic, and mean arterial pressures), heart rate, the ECG (QRS duration and the RR, PR, QT, and Corrected QT [QTc] intervals), and respiratory evaluations (respiratory rate, tidal volume, and minute volume). The animals were monitored continuously for at least 2 hours prior to dosing and for 24 hours post dose.

[3] = Excipient solubility and compatibility testing; format: physicochemical
Experimental: Conjugate 57 is an amphiphilic molecule and therefore tends to self-assemble into large structures. […] Commonly used parenteral surfactant excipients such as Polysorbate 80 (Tween 80) and Polyoxyl 15 Hydroxystearate (solutol, Kolliphor HS 15) were evaluated to re-assemble and stabilize Conjugate 57 into organized micelles. Conjugate 57 is compatible with non-ionic surfactants such as Tween 80 and solutol.

SSTR5 = SSTR5 (Homo sapiens, UniProt P35346); assay: Affinity profile (half-maximal inhibitory concentration), SSTR5; format: binding
Description: DOTATE, also known as DOTA-TATE or DOTA-octreotate, comprises an amide of the acid DOTA, which connects a radionuclide and (Tyr3)-octreotate, a derivative of octreotide. DOTATOC, also known as edotreotide, SMT487, or (DOTA^0-Phe^1-Tyr^3)octreotide, is also an octreotide derivative which can be bound to radionuclides for diagnosis and treatment.

[4] = Pharmacokinetics in patients; format: in vivo; conditions: human, venous blood, intravenous; in a patient
Experimental: For C1D1 and C3D1, venous blood samples (4-6 ml) for determination of Conjugate 57, the somatostatin analog peptide component of Conjugate 57 (BT-979), and DM1 (total, unconjugated, and free sulfhydryl) are taken before the start of the infusion, at 0.5 hours (±1 minute) after the start of study drug infusion; precisely at the end of infusion; and 1.5 hours (±5 minutes), 2 hours (±5 minutes), 4 hours (±5 minutes), 6 hours (±5 minutes), 8 hours (±5 minutes), and 10 hours (±5 minutes) after the start of study drug infusion. If the 10 hour time point requires an inpatient admission at the center, the 10 hour time point is not collected. The date and time of collection of each sample are recorded.

SSTR2 = SSTR2 (Homo sapiens, UniProt P30874); assay: SSTR2 receptor internalization in H524-MD tumor xenograft (IHC staining); format: in vivo; design: highly expressing SSTR2 positive (SSTR2+) tumor xenograft; endogenous in cells
Experimental: SSTR2 receptor internalization was studied using Conjugate 57 in a highly expressing SSTR2 positive (SSTR2+) tumor xenograft: H524_MD tumor xenograft. Vehicle (0.1% Solutol/5% Mannitol), Conjugate 57 at 2 mg/kg, scrambled control (BT-984) at 2 mg/kg, and Octreotide at 1.4 mg/kg (ligand alone) were given to SSTR2+ H524-MD tumor xenografts (n=3/group). Timepoints—0 hr (Vehicle), 15 mins, 1 hr, 4 hr, 24 hr and 72 hrs. SSTR2 scoring was done by immunohistochemistry (IHC) staining.

[5] = 0.16 mg/kg iv, segment 1 (>0 to 0.25 hours post dose)
[6] = 0.16 mg/kg iv, segment 2 (>0.25 to 6 hours post dose)
[7] = 0.16 mg/kg iv, segment 3 (>6 to 24 hours post dose)
[8] = 0.20 mg/kg iv, segment 1 (>0 to 0.25 hours post dose)
[9] = 0.20 mg/kg iv, segment 2 (>0.25 to 6 hours post dose)
[10] = 0.20 mg/kg iv, segment 3 (>6 to 24 hours post dose)
[11] = 0.24 mg/kg iv, segment 1 (>0 to 0.25 hours post dose)
[12] = 0.24 mg/kg iv, segment 2 (>0.25 to 6 hours post dose)
[13] = 0.24 mg/kg iv, segment 3 (>6 to 24 hours post dose)

Chain of SSTR2 (P30874 whole entry): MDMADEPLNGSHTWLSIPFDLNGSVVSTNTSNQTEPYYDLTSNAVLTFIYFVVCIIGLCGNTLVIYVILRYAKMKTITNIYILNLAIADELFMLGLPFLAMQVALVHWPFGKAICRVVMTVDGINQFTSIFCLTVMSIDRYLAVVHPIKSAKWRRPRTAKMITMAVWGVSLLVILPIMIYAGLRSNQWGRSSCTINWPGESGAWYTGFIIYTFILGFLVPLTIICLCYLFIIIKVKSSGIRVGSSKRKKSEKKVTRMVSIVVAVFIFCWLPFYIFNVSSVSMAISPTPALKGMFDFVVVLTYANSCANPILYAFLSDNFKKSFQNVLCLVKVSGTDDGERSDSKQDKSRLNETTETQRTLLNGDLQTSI
Chain of SSTR5 (P35346 whole entry): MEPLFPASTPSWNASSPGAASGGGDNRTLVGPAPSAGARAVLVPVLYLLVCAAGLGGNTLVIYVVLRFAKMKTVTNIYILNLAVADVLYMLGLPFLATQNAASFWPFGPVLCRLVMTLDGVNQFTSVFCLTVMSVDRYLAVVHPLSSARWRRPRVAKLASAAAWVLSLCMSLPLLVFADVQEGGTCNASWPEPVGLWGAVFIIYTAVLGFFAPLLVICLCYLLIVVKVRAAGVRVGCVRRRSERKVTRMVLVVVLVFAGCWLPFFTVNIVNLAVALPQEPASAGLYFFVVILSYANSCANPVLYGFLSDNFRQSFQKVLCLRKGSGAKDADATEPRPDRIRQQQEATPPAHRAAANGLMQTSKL

For `COc1cc2cc(c1Cl)N(C)C(=O)C[C@H](OC(=O)[C@H](C)N(C)C(=O)CCSSC[C@H](NC(=O)[C@@H]1CSSC[C@H](NC(=O)[C@H](N)Cc3ccccc3)C(=O)N[C@@H](Cc3ccc(O)cc3)C(=O)N[C@H](Cc3c[nH]c4ccccc34)C(=O)N[C@@H](CCCCN)C(=O)N[C@@H]([C@@H](C)O)C(=O)N1)C(N)=O)[C@]1(C)O[C@H]1[C@H](C)[C@@H]1C[C@@](O)(NC(=O)O1)[C@H](OC)/C=C/C=C(\C)C2` [Conjugate 57], the TGI % ([1]; 0.25 mg/kg 2x/wk (8 doses), Day 4) was −12.5%, the TGI % ([1]; 0.25 mg/kg 2x/wk (8 doses), Day 8) was 50.4% and the TGI % ([1]; 0.25 mg/kg 2x/wk (8 doses), Day 11) was 67.3%. For the same compound, the TGI % ([1]; 0.25 mg/kg 2x/wk (8 doses), Day 15) was 85.8%, the TGI % ([1]; 0.25 mg/kg 2x/wk (8 doses), Day 18) was 92.3% and the TGI % ([1]; 0.25 mg/kg 2x/wk (8 doses), Day 22) was 95.8%. The TGI % ([1]; 0.25 mg/kg 2x/wk (8 doses), Day 25) was 97.2%, the TGI % ([1]; 0.25 mg/kg 2x/wk (8 doses), Day 29) was 97.8% and the TGI % ([1]; 0.33 mg/kg every week (4 doses), Day 4) was 2.1%. It also gave a TGI % ([1]; 0.33 mg/kg every week (4 doses), Day 8) of 34.2%, a TGI % ([1]; 0.33 mg/kg every week (4 doses), Day 11) of 48% and a TGI % ([1]; 0.33 mg/kg every week (4 doses), Day 15) of 62.4%. For the same compound, the TGI % ([1]; 0.33 mg/kg every week (4 doses), Day 18) was 73.8%, the TGI % ([1]; 0.33 mg/kg every week (4 doses), Day 22) was 79% and the TGI % ([1]; 0.33 mg/kg every week (4 doses), Day 25) was 83.4%. It also gave a TGI % ([1]; 0.33 mg/kg every week (4 doses), Day 29) of 78.5%, a TGI % ([1]; 0.5 mg/kg 2x/wk (8 doses), Day 4) of 0.5% and a TGI % ([1]; 0.5 mg/kg 2x/wk (8 doses), Day 8) of 61.6%. The TGI % ([1]; 0.5 mg/kg 2x/wk (8 doses), Day 11) was 78.3%, the TGI % ([1]; 0.5 mg/kg 2x/wk (8 doses), Day 15) was 91.8% and the TGI % ([1]; 0.5 mg/kg 2x/wk (8 doses), Day 18) was 96.2%. For the same compound, the TGI % ([1]; 0.5 mg/kg 2x/wk (8 doses), Day 22) was 97.6%, the TGI % ([1]; 0.5 mg/kg 2x/wk (8 doses), Day 25) was 99.1% and the TGI % ([1]; 0.5 mg/kg 2x/wk (8 doses), Day 29) was 99.2%. The TGI % ([1]; 0.5 mg/kg every week (4 doses), Day 4) was 1.6%, the TGI % ([1]; 0.5 mg/kg every week (4 doses), Day 8) was 60.3% and the TGI % ([1]; 0.5 mg/kg every week (4 doses), Day 11) was 68.8%. For the same compound, the TGI % ([1]; 0.5 mg/kg every week (4 doses), Day 15) was 82.7%, the TGI % ([1]; 0.5 mg/kg every week (4 doses), Day 18) was 87.1% and the TGI % ([1]; 0.5 mg/kg every week (4 doses), Day 22) was 91.1%. For the same compound, the TGI % ([1]; 0.5 mg/kg every week (4 doses), Day 25) was 93.6%, the TGI % ([1]; 0.5 mg/kg every week (4 doses), Day 29) was 89.5% and the TGI % ([1]; 1.0 mg/kg every week (4 doses), Day 4) was 25.8%. For the same compound, the TGI % ([1]; 1.0 mg/kg every week (4 doses), Day 8) was 69.9%, the TGI % ([1]; 1.0 mg/kg every week (4 doses), Day 11) was 84.4% and the TGI % ([1]; 1.0 mg/kg every week (4 doses), Day 15) was 93.6%. The TGI % ([1]; 1.0 mg/kg every week (4 doses), Day 18) was 97.4%, the TGI % ([1]; 1.0 mg/kg every week (4 doses), Day 22) was 99.2% and the TGI % ([1]; 1.0 mg/kg every week (4 doses), Day 25) was 99.8%. The TGI % ([1]; 1.0 mg/kg every week (4 doses), Day 29) was 99.7%, the Body weights ([1]; HCC-33 xenograft, all groups) was “good” and the “tolerability of multiple doses” value ([1]; HCC-33 xenograft, weekly or twice weekly dosing for 30 days) was “well tolerated”. The “Diastolic Blood Pressure, overall segment mean” value (“Diastolic Blood Pressure” below) [2, 5] was 100.8 ± 4.1, the “Mean Arterial Blood Pressure, overall segment mean” value (from here on “Mean Arterial Blood Pressure”) [2, 5] was 124.0 ± 4.8 and the “Systolic Blood Pressure, overall segment mean” value (shortened to “Systolic Blood Pressure”) [2, 5] was 162.8 ± 5.7. The “Diastolic Blood Pressure” value [2, 6] was 102.7 ± 1.5, the “Mean Arterial Blood Pressure” value [2, 6] was 128.6 ± 2.0 and the “Systolic Blood Pressure” value [2, 6] was 172.2 ± 2.9. For the same compound, the “Diastolic Blood Pressure” value [2, 7] was 99.6 ± 1.9, the “Mean Arterial Blood Pressure” value [2, 7] was 125.7 ± 2.2 and the “Systolic Blood Pressure” value [2, 7] was 169.2 ± 3.1. For the same compound, the “Diastolic Blood Pressure” value [2, 8] was 99.8 ± 4.2, the “Mean Arterial Blood Pressure” value [2, 8] was 122.7 ± 4.9 and the “Systolic Blood Pressure” value [2, 8] was 161.1 ± 5.9. The “Diastolic Blood Pressure” value [2, 9] was 97.7 ± 1.5, the “Mean Arterial Blood Pressure” value [2, 9] was 122.6 ± 2.1 and the “Systolic Blood Pressure” value [2, 9] was 165.7 ± 3.0. The “Diastolic Blood Pressure” value [2, 10] was 93.8 ± 1.9, the “Mean Arterial Blood Pressure” value [2, 10] was 119.4 ± 2.2 and the “Systolic Blood Pressure” value [2, 10] was 163.4 ± 3.2. The “Diastolic Blood Pressure” value [2, 11] was 112.0 ± 4.1, the “Mean Arterial Blood Pressure” value [2, 11] was 138.7 ± 4.8 and the “Systolic Blood Pressure” value [2, 11] was 182.0 ± 5.7. The “Diastolic Blood Pressure” value [2, 12] was 104.1 ± 1.5, the “Mean Arterial Blood Pressure” value [2, 12] was 129.8 ± 2.0 and the “Systolic Blood Pressure” value [2, 12] was 176.3 ± 2.9. For the same compound, the “Diastolic Blood Pressure” value [2, 13] was 97.1 ± 1.9, the “Mean Arterial Blood Pressure” value [2, 13] was 123.5 ± 2.2 and the “Systolic Blood Pressure” value [2, 13] was 171.1 ± 3.1. For the same compound, the “blood pressure, heart rate and respiratory rate” value ([2]; 0.24 mg/kg, from dosing through 1.5 to 2 hours following dosing) was “statistically significant increases”, the “effects on QRS duration, ECG morphology, or tidal volume” value ([2]; any dose level tested) was “no test article-related effects” and the “adverse effects on cardiovascular or respiratory function” value ([2]; iv, male beagle dogs, doses up to and including 0.24 mg/kg) was “no adverse effects”. The “tolerability, clinical observations, mortality” value ([2]; single iv infusion over 6 minutes, 0.16, 0.20 and 0.24 mg/kg, male beagle dogs) was “generally well tolerated”, the solubility ([3]; in saline) was < 1000 µg/mL and the excipient compatibility ([3]; non-ionic surfactants such as Tween 80 and solutol) was “compatible”. For the same compound, the excipient compatibility ([3]; tocophersolan (TPGS), super refined PEG 300, PEG 400, ethanol, dextrose, or Pluronics F68) was “not compatible”, the IC50 (SSTR5) was 24 nM and the half-life [4] was ~1.8 h. For the same compound, the “SSTR2 receptor internalization/distribution in vivo” value (SSTR2; 2 mg/kg, H524-MD tumor xenograft) was “significant receptor internalization/distribution”, the “SSTR2 receptor internalization, intensity of staining analysis” value (SSTR2; 2 mg/kg, versus BT-984 and naïve at 1 hr, 4 hr and 72 hours) was “significantly different results” and the “SSTR2 internalization, distribution of staining analysis” value (SSTR2; 2 mg/kg, versus BT-984 and naïve at 4 hr, 24 hr and 72 hours) was “significantly different results”. For the same compound, the “SSTR2 internalization compared with octreotide alone” value (SSTR2; Conjugate 57 2 mg/kg, octreotide 1.4 mg/kg) was “more SSTR2 internalization than octreotide alone”.
